Laboratory results: patent publication US10344053B2, “Inhibitors for inhibiting tumor metastasis” (Forschungsverbund Berlin e.V., priority 2014, dated 2019)
Each block holds one compound with its values, some of them ahead of it.

Columns and labels:
[1] = system: MDA MB 231 breast cancer cells; experiment: Matrigel migration assay (chemotaxis and motility); type: cell-based; details: relative to the baseline value (DMSO/no FBS gradient)
Method: FIG. 1: Inhibition of the chemotaxis and motility of highly invasive tumor cells in a matrigel migration assay.
Cell culture experiments were performed with MDA MB 231 breast cancer cells.
Example Compound III inhibits the migration of MDA MB 231 breast cancer cells by more than 90% relative to the baseline value (DMSO/no FBS gradient) (FIGS. 1 A and B).

cells = experiment: Cellular toxicity; type: cell-based; details: result in words
From the text: FIG. 2: Cellular toxicity of the compound in accordance with Formula III.
The low or absent cellular toxicity likewise constitutes a surprising and advantageous property of the compounds. The inventive compounds bind to the target receptor not only with very low dissociation constants, but also with high specificity. For medical use of the compounds this is to be considered as an advantage.

ena/VASP-EVH1 = experiment: Inhibition of ena/VASP-EVH1-mediated protein-protein interactions, affinity for the target (statements in words); type: binding; details: result in words
VASP-EVH1 [2] = target: T1, VASP-EVH1 (Homo sapiens, UniProt P50552); experiment: Binding data to VASP-EVH1 (text, method not stated); details: text b160
T1 construct: VASP-EVH-1, EnaH-EVH-1 and EVL-EVH-1 domain
T1 sequence (P50552 2-113 limits assumed): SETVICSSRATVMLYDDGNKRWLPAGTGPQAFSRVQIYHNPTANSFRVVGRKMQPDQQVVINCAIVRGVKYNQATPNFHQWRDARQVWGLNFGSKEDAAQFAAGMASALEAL

EVH-1 domain [3] = experiment: Binding affinity to EVH-1 domain by fluorescence titration (FT), Table 1; details: for Kd: EVH-1 domain; for FT ΔG: free enthalpy of protein-ligand complex
Method: (§1) The substitution of the diproline units of the FPPPP motif with the Fmoc-ProMs was carried out. The binding affinities of the ligands to the domain were subsequently determined by means of isothermal titration calorimetry (ITC) on the basis of the dissociation constant (Kd) or the free enthalpy (ΔG) of the protein-ligand complexes. The results of the measurements were additionally checked by means of fluorescence titration (FT). A stronger binding of the respective ligand is expressed by a smaller value for Kd or a more negative value for ΔG. The correlation between the dissociation constant (Kd) and the free enthalpy (ΔG) is illustrated with the following equations: […]

EVH-1 domain [4] = experiment: Binding affinity to EVH-1 domain by isothermal titration calorimetry (ITC), Table 1; details: for Kd / ITC ΔG: ITC; for Kd: EVH-1 domain; for ITC ΔG: free enthalpy of protein-ligand complex
Method: as §1

target cells = experiment: Cell experiments: absorption of the compound by target cells; type: cell-based; details: ester derivative versus carboxylic acid ligand; result in words
From the text: Within the framework of cell experiments it could further be shown that, by replacing the carboxylic acid ligand with the ester derivative (NBD-Phe(2-CI)-[ProM-2][ProM-1]-OEt), the ability of the compound to be absorbed by the target cells could be improved. The absorption of the substance in the cell could thus be increased, without loss of the advantageous binding properties.

EnaH-EVH1 [5] = target: T2, EnaH-EVH1 (Homo sapiens, UniProt Q8N8S7); experiment: Binding affinity by ITC, EnaH-EVH1
T2 construct: VASP-EVH-1, EnaH-EVH-1 and EVL-EVH-1 domain
T2 sequence (Q8N8S7 1-111 limits assumed): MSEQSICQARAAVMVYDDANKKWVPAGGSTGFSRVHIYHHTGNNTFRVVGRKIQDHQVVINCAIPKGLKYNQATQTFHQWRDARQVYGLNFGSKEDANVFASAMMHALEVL
Method: as §1
(§2) A further analysis to test the dissociation constant (Kd) of a variety of other compounds was carried out by means of FT and ITC.

VASP-EVH1 [6] = target: T1, VASP-EVH1; experiment: Binding affinity by ITC, VASP-EVH1
Method: as §1, §2

EVL-EVH1 [7] = target: T3, EVL-EVH1 (Homo sapiens, UniProt Q9UI08); experiment: Binding affinity by ITC, EVL-EVH1
T3 construct: VASP-EVH-1, EnaH-EVH-1 and EVL-EVH-1 domain
T3 sequence (Q9UI08 1-112 limits assumed): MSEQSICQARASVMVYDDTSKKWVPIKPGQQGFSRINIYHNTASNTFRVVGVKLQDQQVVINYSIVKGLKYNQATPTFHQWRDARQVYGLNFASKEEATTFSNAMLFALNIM
Method: as §1, §2

VASP-EVH1 [8] = target: T1, VASP-EVH1; experiment: Binding affinity by FT, VASP-EVH1
Method: as §1, §2

EVL-EVH1 [9] = target: T3, EVL-EVH1; experiment: Binding affinity by FT, EVL-EVH1
Method: as §1, §2

EnaH-EVH1 [10] = target: T2, EnaH-EVH1; experiment: Binding affinity by FT, EnaH-EVH1
Method: as §1, §2

in vitro [11] = type: in vitro ADME; details: for Plasma stability, % remaining (Tlast 240 min): 4 h; for half-life: plasma
Method: An in vitro assay was performed in the plasma of mice and humans.

in vitro [12] = type: in vitro ADME; details: mouse, microsomes
in vitro [13] = type: in vitro ADME; details: human, microsomes
in vitro [14] = details: human, human plasma
in vitro [15] = details: mouse, mouse plasma

Compound: CCOC(=O)[C@@H]1C[C@@H](C)[C@@H]2C=C[C@H]3CCN(C(=O)[C@@H]4CC[C@H]5C=C[C@]6(CCCN6C(=O)[C@H](Cc6ccccc6Cl)NC(C)=O)C(=O)N54)[C@@H]3C(=O)N12 [Compound III]
inhibition of migration of MDA MB 231 breast cancer cells [1]: more than 90% | cellular toxicity (cells): non-toxic to cells | inhibition of ena/VASP-EVH1-mediated protein-protein interactions (ena/VASP-EVH1): selectively inhibit | Kd (VASP-EVH1 [2]): 0.28 µM

Compound: CC(=O)N[C@@H](CO)C(=O)N[C@@H](Cc1ccccc1)C(=O)N[C@@H](CCC(=O)O)C(=O)N[C@@H](Cc1ccccc1)C(=O)N1CCC[C@H]1C(=O)N1CCC[C@H]1C(=O)N1CCC[C@H]1C(=O)N1CCC[C@H]1C(=O)N[C@H](C(=O)N[C@@H](CCC(=O)O)C(=O)N[C@@H](CC(=O)O)C(=O)N[C@@H](CCC(=O)O)C(=O)N[C@@H](CC(C)C)C(N)=O)[C@@H](C)O [reference compound]
Kd (EVH-1 domain [4]): 20 µM

Compound: NBD-Phe(2-CI)-[ProM-2]-[ProM-1]-OEt [NBD-Phe(2-CI)-[ProM-2][ProM-1]-OEt]
ability to be absorbed by the target cells (target cells): improved

Compound: CC(=O)NC(Cc1ccccc1Cl)C(=O)N1CCCC12C=CC1CCC(C(=O)N3CCC4C=CC5C(C)CC(C(=O)O)N5C(=O)C43)N1C2=O (stereo not shown) [Ac-Phe(2-Cl)-[ProM-2][ProM-9]-OH]
Kd (EVH-1 domain [3]): 0.28 µM | FT ΔG (EVH-1 domain [3]): -8.94 kcal/mol | Kd (EVH-1 domain [4]): 0.69 µM | ITC ΔG (EVH-1 domain [4]): -8.41 kcal/mol | free enthalpy (Gibbs free energy) gain ΔΔG over the ligand optimization (EVH-1 domain [4]; determined by means of ITC, overall progression from the wild-type ligand): -3.8 kcal/mol

Compound: Ac-Phe(2-Cl)-PPPP-OH
Kd (EVH-1 domain [3]): 13 µM | FT ΔG (EVH-1 domain [3]): -6.64 kcal/mol | Kd (EVH-1 domain [4]): 18 µM | ITC ΔG (EVH-1 domain [4]): -6.45 kcal/mol

Compound: CCOC(=O)[C@@H]1C[C@@H](CC)[C@@H]2C=C[C@H]3CCN(C(=O)[C@@H]4CC[C@H]5C=C[C@]6(CCCN6C(=O)[C@H](Cc6ccccc6Cl)NC(C)=O)C(=O)N54)[C@@H]3C(=O)N12 [Ac[2-Cl—F][ProM-2][ProM-13]-OEt, Ac-Phe(2-CI)-[ProM-2][ProM-13]-OEt]
Kd (EnaH-EVH1 [5]): 0.31 µM | Kd (VASP-EVH1 [6]): 0.49 µM | Kd (EVL-EVH1 [7]): 0.28 µM | affinity for the target (ena/VASP-EVH1): particularly strong affinity | Kd (VASP-EVH1 [8]): 0.4 µM | Kd (EVL-EVH1 [9]): 0.13 µM | Kd (EnaH-EVH1 [10]): 0.18 µM

Compound: CCOC(=O)C1CCC2C=CC3CCN(C(=O)C4CCC5C=CC6(CCCN6C(=O)C(Cc6ccccc6Cl)NC(C)=O)C(=O)N54)C3C(=O)N21 (stereo not shown) [Compound 4D, Ac-Phe(2-CI)-[ProM-2][ProM-1]-OEt]
Kd (EnaH-EVH1 [5]): 7.8 µM | Plasma stability, % remaining (Tlast 240 min) (in vitro [11]; human): 95.5% | half-life (in vitro [11]; human): > 4 h | Plasma stability, % remaining (Tlast 240 min) (in vitro [11]; mouse): 87.4% | half-life (in vitro [11]; mouse): > 4 h | Kd (VASP-EVH1 [6]): 9.4 µM | half-life (in vitro [12]): > 1 h | microsomal CLint (in vitro [12]): 35.6 µL/min/mg | half-life (in vitro [13]): > 1 h | microsomal CLint (in vitro [13]): 26.4 µL/min/mg | Kd (EVL-EVH1 [7]): 5.8 µM | fraction unbound (in vitro [14]): 0.924 | Kd (VASP-EVH1 [8]): 6.2 µM | Kd (EVL-EVH1 [9]): 4.1 µM | fraction unbound (in vitro [15]): 0.981 | Kd (EnaH-EVH1 [10]): 4.1 µM

Compound: CC(=O)NC(Cc1ccccc1Cl)C(=O)N1CCCC12C=CC1CCC(C(=O)N3CCC4C=CC5CCC(C(=O)O)N5C(=O)C43)N1C2=O (stereo not shown) [Ac-Phe(2-Cl)-[ProM-2][ProM-1]-OH, Ac-Phe(2-CI)-[ProM-2]-[ProM-1]-OH]
Kd (EVH-1 domain [3]): 2.7 µM | FT ΔG (EVH-1 domain [3]): -7.6 kcal/mol | improvement of the binding affinity by a factor (FT) (EVH-1 domain [3]; in comparison to Ac-Phe(2-CI)-PP[ProM-1]-OH): 1.2 | Kd (EVH-1 domain [4]): 3.8 µM | ITC ΔG (EVH-1 domain [4]): -7.41 kcal/mol

Results, then the compound that gave them:

Kd (EVH-1 domain [3]): 3.2 µM | FT ΔG (EVH-1 domain [3]): -7.5 kcal/mol | Kd (EVH-1 domain [4]): 14.1 µM | ITC ΔG (EVH-1 domain [4]): -6.62 kcal/mol
Compound: Ac-Phe(2-Cl)-PP[ProM-1]-OH

Plasma stability, % remaining (Tlast 240 min) (in vitro [11]; human): 80.3% | Plasma stability, % remaining (Tlast 240 min) (in vitro [11]; mouse): 94.7% | Liver microsomal stability Clint (in vitro [12]): 34.0 μl/min/mg protein | Liver microsomal stability t½ (in vitro [12]): >1 h | Liver microsomal stability Clint (in vitro [13]): 11.6 μl/min/mg protein | Liver microsomal stability t½ (in vitro [13]): >1 h
Compound: Ac-Phe(2-CI)-[ProM-2][ProM-1]-NH2 [Compound 4C]

Kd (EVH-1 domain [3]): 1.6 µM | FT ΔG (EVH-1 domain [3]): -7.91 kcal/mol | Kd (EVH-1 domain [4]): 9.7 µM | ITC ΔG (EVH-1 domain [4]): -6.84 kcal/mol
Compound: Ac-Phe(2-Cl)-[ProM-2][ProM-4]-OH

Kd (EVH-1 domain [3]): 0.4 µM | FT ΔG (EVH-1 domain [3]): -8.77 kcal/mol | Kd (EVH-1 domain [4]): 8 µM | ITC ΔG (EVH-1 domain [4]): -6.96 kcal/mol
Compound: Ac-Phe(2-Cl)-PP[ProM-9]-OH
